# Measured values taken from patent US9624182B2, “Compounds as lysophosphatidic acid receptor antagonists” (Amira Pharmaceuticals, Inc., priority 2009, dated 2017).
# Tested on: A2058 human melanoma cells
# Assay: LPA1 chemotaxis assay
# Assay type: cell-based
# Details: LPA 100 nM, read-out: IC50, inhibition of LPA-driven chemotaxis
# Method: Chemotaxis of the A2058 human melanoma cells was measured using the Neuroprobe ChemoTx® System plates (8 μm pore size, 5.7 mm diameter sites). The filter sites were coated with 0.001% fibronectin (Sigma) in 20 mM Hepes, pH 7.4 and allowed to dry. A2058 cells were serum-starved for 24 hours, then harvested with Cell Stripper and resuspended in DMEM containing 0.1% fatty-acid-free bovine serum albumin (BSA) to a concentration of 1×10^6/ml. Cells were mixed with an equal volume of test compound (2×) in DMEM containing 0.1% fatty-acid-free BSA and incubated at 37° C. for 15 minutes. LPA (100 nM in DMEM containing 0.1% fatty-acid-free BSA) or vehicle was added to each well of the lower chamber and 50 μl of the cell suspension/test compound mix was applied to the upper portion of the ChemoTx plate. Plates were incubated at 37° C. for three hours and then the cells removed from the upper portion by rinsing with PBS and scraping. The filter was dried then stained with HEMA 3 Staining System (Fisher Scientific). The absorbance of the filter was read at 590 nm and IC50s were determined using Symyx Assay Explorer.
row,IC50 [nM],SMILES
1,< 100,"Cc1noc(-c2ccc(-c3ccc(C4(C(=O)O)CC4)cc3)cc2)c1C(O)CCCc1ccccc1 (stereo not drawn) [Compound 1-116, 1-{4′-[4-(1-Hydroxy-4-phenyl-butyl)-3-methyl-isoxazol-5-yl]-biphenyl-4-yl}-cyclopropanecarboxylic acid]"
2,< 100,"Cc1noc(-c2ccc(-c3ccc(C4(C(=O)O)CC4)cc3)cc2)c1C(O)C(F)(F)CCc1ccccc1 (stereo not drawn) [Compound 1-178, 1-{4′-[4-(2,2-Difluoro-1-hydroxy-4-phenyl-butyl)-3-methyl-isoxazol-5-yl]-biphenyl-4-yl}-cyclopropanecarboxylic acid]"

# Biological target: T1, human LPA1 (Homo sapiens, UniProt Q92633)
# T1 construct: the full-length cDNA for human LPA1 was obtained by PCR of the reverse transcription reaction; expressed in transfected cells
# T1 sequence (Q92633 whole entry): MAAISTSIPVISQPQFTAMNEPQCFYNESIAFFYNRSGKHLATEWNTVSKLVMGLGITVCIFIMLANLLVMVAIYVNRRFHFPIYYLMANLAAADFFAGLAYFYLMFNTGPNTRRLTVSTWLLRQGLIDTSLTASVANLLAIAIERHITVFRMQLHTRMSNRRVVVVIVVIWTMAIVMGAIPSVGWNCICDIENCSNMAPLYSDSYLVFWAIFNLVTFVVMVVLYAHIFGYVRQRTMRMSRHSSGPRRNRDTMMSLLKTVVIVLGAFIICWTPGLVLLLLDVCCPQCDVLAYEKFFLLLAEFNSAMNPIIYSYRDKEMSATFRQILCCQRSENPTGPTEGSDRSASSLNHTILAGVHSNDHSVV
# Assay: LPA1 calcium flux assay
# Assay type: cell-based
# Details: CHO cells expressing human LPA1, stimulated with 10 nM LPA; read-out: HLPA1 Ca Flux IC50
# Procedure, shortened: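 Antagonism measured as block of 10 nM LPA-evoked calcium rise in stable human LPA1-CHO cells. After overnight serum-free culture and 1 h dye loading at 37 °C (buffer with 0.3% fatty-acid-free albumin), compound was added for 30 min at room temperature. Titration curves gave IC50.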
row,IC50 [nM],SMILES
1,> 50000,"Cc1noc(-c2ccc(-c3ccc(C4(C(=O)O)CC4)cc3)cc2)c1Nc1ccccn1 [Compound 1-296, 1-{4′-[3-Methyl-4-(pyridin-2-ylamino)-isoxazol-5-yl]-biphenyl-4-yl}-cyclopropanecarboxylic acid]"
2,< 300,"Cc1noc(-c2ccc(-c3ccc(C4(C(=O)O)CC4)cc3)cc2)c1Nc1cccc(OC(C)C)n1 [Compound 1-297, 1-{4′-[4-(6-Isopropoxy-pyridin-2-ylamino)-3-methyl-isoxazol-5-yl]-biphenyl-4-yl}-cyclopropanecarboxylic acid]"
3,1000 to 50000,"Cc1noc(-c2ccc(-c3ccc(C4(C(=O)O)CC4)cc3)cc2)c1Nc1cccc(C(=O)O)n1 [Compound 1-298, 6-{5-[4′-(1-Carboxy-cyclopropyl)-biphenyl-4-yl]-3-methyl-isoxazol-4-ylamino}-pyridine-2-carboxylic acid]"
4,1000 to 50000,"Cc1noc(-c2ccc(-c3ccc(C4(C(=O)O)CC4)cc3)cc2)c1Nc1cccc(C(=O)NCCN(C)C)n1 [Compound 1-299, 1-(4′-{4-[6-(2-Dimethylamino-ethylcarbamoyl)-pyridin-2-ylamino]-3-methyl-isoxazol-5-yl}-biphenyl-4-yl)-cyclopropanecarboxylic acid]"
5,< 300,"Cc1noc(-c2ccc(-c3ccc(C4(C(=O)O)CC4)cc3)cc2)c1Nc1cccc(C(=O)NCC(C)(C)C)n1 [Compound 1-300, 1-(4′-{4-[6-(2,2-Dimethyl-propylcarbamoyl)-pyridin-2-ylamino]-3-methyl-isoxazol-5-yl}-biphenyl-4-yl)-cyclopropanecarboxylic acid]"
6,1000 to 50000,"Cc1noc(-c2ccc(-c3ccc(C4(C(=O)O)CC4)cc3)cc2)c1Nc1cccc(O)n1 [Compound 1-302, 1-{4′-[4-(6-Hydroxy-pyridin-2-ylamino)-3-methyl-isoxazol-5-yl]-biphenyl-4-yl}-cyclopropanecarboxylic acid]"
7,1000 to 50000,"CCCCCCCCCCCCOc1cccc(Nc2c(C)noc2-c2ccc(-c3ccc(C4(C(=O)O)CC4)cc3)cc2)n1 [Compound 1-303, 1-{4′-[4-(6-Dodecyloxy-pyridin-2-ylamino)-3-methyl-isoxazol-5-yl]-biphenyl-4-yl}-cyclopropanecarboxylic acid]"
8,< 300,"COc1cccc(Nc2c(C)noc2-c2ccc(-c3ccc(C4(C(=O)O)CC4)cc3)cc2)n1 [Compound 1-304, 1-{4′-[4-(6-Methoxy-pyridin-2-ylamino)-3-methyl-isoxazol-5-yl]-biphenyl-4-yl}-cyclopropanecarboxylic acid]"
9,1000 to 50000,"Cc1noc(-c2ccc(-c3cccc(C(=O)O)c3)cc2)c1CNC(=O)OCc1ccccc1 [Compound 1-305, 4′-[4-(Benzyloxycarbonylamino-methyl)-3-methyl-isoxazol-5-yl]-biphenyl-3-carboxylic acid]"
10,< 300,"Cc1onc(-c2ccc(-c3ccc(C4(CC(=O)O)CC4)cc3)cc2)c1CSCCc1ccccc1 [Compound 1-306, {1-[4′-(5-Methyl-4-phenethylsulfanylmethyl-isoxazol-3-yl)-biphenyl-4-yl]-cyclopropyl}-acetic acid]"
11,300 to 1000,"Cc1noc(-c2ccc(-c3ccc(C#CC(=O)O)cc3)cc2)c1N[C@@H](C)CCc1cccc(C(F)(F)F)c1 [Compound 1-307, (4′-{3-Methyl-4-[(S)-1-methyl-3-(3-trifluoromethyl-phenyl)-propylamino]-isoxazol-5-yl}-biphenyl-4-yl)-propynoic acid]"
12,< 300,"Cc1noc(-c2ccc(-c3ccc(C4(C(=O)O)CC4)cc3)cc2)c1NC(=O)Nc1cccc(Br)c1 [Compound 1-308, 1-(4′-{4-[3-(3-Bromo-phenyl)-ureido]-3-methyl-isoxazol-5-yl}-biphenyl-4-yl)-cyclopropanecarboxylic acid]"
13,1000 to 50000,"Cc1noc(-c2ccc(-c3ccc(C4(C(=O)O)CC4)cc3)cc2)c1Nc1cccc(OC(C)C)[n+]1[O-] [Compound 1-309, 1-{4′-[4-(6-Isopropoxy-1-oxy-pyridin-2-ylamino)-3-methyl-isoxazol-5-yl]-biphenyl-4-yl}-cyclopropanecarboxylic acid]"
14,< 300,"Cc1noc(-c2ccc(-c3ccc(C4(C(=O)O)CC4)cc3)cc2)c1Nc1cncc(OC(C)C)c1 [Compound 1-310, 1-{4′-[4-(5-Isopropoxy-pyridin-3-ylamino)-3-methyl-isoxazol-5-yl]-biphenyl-4-yl}-cyclopropanecarboxylic acid]"
15,< 300,"CC(=O)c1cccc(Nc2c(C)noc2-c2ccc(-c3ccc(C4(C(=O)O)CC4)cc3)cc2)n1 [Compound 1-311, 1-{4′-[4-(6-Acetyl-pyridin-2-ylamino)-3-methyl-isoxazol-5-yl]-biphenyl-4-yl}-cyclopropanecarboxylic acid]"
16,< 300,"Cc1noc(-c2ccc(-c3ccc(C4(C(=O)O)CC4)cc3)cc2)c1Nc1cccc(C(N)=O)n1 [Compound 1-312, 1-{4′-[4-(6-Carbamoyl-pyridin-2-ylamino)-3-methyl-isoxazol-5-yl]-biphenyl-4-yl}-cyclopropanecarboxylic acid]"
17,< 300,"Cc1noc(-c2ccc(-c3ccc(C4(C(=O)O)CC4)cc3)cc2)c1Nc1cccc(Br)n1 [Compound 1-313, 1-{4′-[4-(6-Bromo-pyridin-2-ylamino)-3-methyl-isoxazol-5-yl]-biphenyl-4-yl}-cyclopropanecarboxylic acid]"
18,< 300,"Cc1noc(-c2ccc(-c3ccc(C4(C(=O)NS(C)(=O)=O)CC4)cc3)cc2)c1[C@@H](COCc1ccccc1)OC(=O)NS(C)(=O)=O [Compound 2-4, N-Sulfonylmethyl carbamic acid (S)-2-benzyloxy-1-{5-[4′-(1-methanesulfonylaminocarbonyl-cyclopropyl)-biphenyl-4-yl]-3-methyl-isoxazol-4-yl}-ethyl ester]"
19,> 50000,"Cc1ccc(S(=O)(=O)NC(=O)Nc2c(C)noc2-c2ccc(-c3ccc(C4(C(=O)NS(=O)(=O)c5ccc(C)cc5)CC4)cc3)cc2)cc1 [Compound 2-5, 4-Methyl-N-(1-{4′-[3-methyl-4-(3-p-tolunesulfonyl-ureido)-isoxazol-5-yl]-biphenyl-4-yl}-cyclopropanecarbonyl)-benzenesulfonamide]"
20,1000 to 50000,"Cc1noc(-c2ccc(-c3ccc(C4(C(=O)NS(=O)(=O)C5CC5)CC4)cc3)cc2)c1NC(=O)NS(=O)(=O)C1CC1 [Compound 2-6, Cyclopropanesulfonic acid (1-{4′-[4-(3-cyclopropylsulfonyl-ureido)-3-methyl-isoxazol-5-yl]-biphenyl-4-yl}-cyclopropanecarbonyl)-amide]"
21,< 300,"Cc1cccc(SCC(O)c2c(C)noc2-c2ccc(-c3ccc(C4(C(=O)NS(C)(=O)=O)CC4)cc3)cc2)c1 (stereo not drawn) [Compound 2-13, N-(1-{4′-[4-(1-Hydroxy-2-m-tolylsulfanyl-ethyl)-3-methyl-isoxazol-5-yl]-biphenyl-4-yl}-cyclopropanecarbonyl)-methanesulfonamide]"
22,300 to 1000,"COc1cccc(SCC(O)c2c(C)noc2-c2ccc(-c3ccc(C4(C(=O)NS(C)(=O)=O)CC4)cc3)cc2)c1 (stereo not drawn) [Compound 2-14, N-[1-(4′-{4-[1-Hydroxy-2-(3-methoxy-phenylsulfanyl)-ethyl]-3-methyl-isoxazol-5-yl}-biphenyl-4-yl)-cyclopropanecarbonyl]-methanesulfonamide]"
23,300 to 1000,"Cc1noc(-c2ccc(-c3ccc(C4(CC(=O)NS(C)(=O)=O)CC4)cc3)cc2)c1C(CCCc1ccccc1)OC(=O)NS(C)(=O)=O (stereo not drawn) [Compound 2-15, N-Sulfonylmethyl carbamic acid 1-(5-{4′-[1-(2-methanesulfonylamino-2-oxo-ethyl)-cyclopropyl]-biphenyl-4-yl}-3-methyl-isoxazol-4-yl)-4-phenyl-butyl ester]"
24,< 300,"Cc1noc(-c2ccc(-c3ccc(C4(CC(=O)NS(C)(=O)=O)CC4)cc3)cc2)c1C(O)CCCc1ccccc1 (stereo not drawn) [Compound 2-16, N-[2-(1-{4′-[4-(1-Hydroxy-4-phenyl-butyl)-3-methyl-isoxazol-5-yl]-biphenyl-4-yl}-cyclopropyl)-acetyl]-methanesulfonamide]"

row,SMILES,IC50 [nM]
1,"Cc1noc(-c2ccc(-c3ccc(C4(C(=O)O)CC4)cc3)cc2)c1Nc1cccc(OC(C)(C)C)n1 [Compound 1-301, 1-{4′-[4-(6-tert-Butoxy-pyridin-2-ylamino)-3-methyl-isoxazol-5-yl]-biphenyl-4-yl}-cyclopropanecarboxylic acid]",< 300
